{
  "source": "patent US20130189186A1",
  "about": "“APOPTOSIS IMAGING AGENTS BASED ON LANTIBIOTIC PEPTIDES” (GE HEALTHCARE LIMITED, priority 2010, published 2013)",
  "tested_on": "phosphatidyl ethanolamine",
  "assay": "Biacore affinity for phosphatidyl ethanolamine (POPE/POPC liposomes captured on L1 chip)",
  "format": "binding",
  "conditions": "Biacore 3000, L1 chip, POPE/POPC liposomes (20% PE)",
  "from_the_text": "A Biacore 3000 (GE Healthcare, Uppsala) was equipped with an L1 chip. Liposomes made of POPE/POPC (20% PE) were applied for the affinity study using the capture technique recommended by the manufacturer. Each run consisted of activation of the chip surface, immobilization of liposomes, binding of peptide and wash off of both liposomes and peptide (regeneration). Similar applications can be found in Frostell-Karlsson et al [Pharm. Sciences, V.94 (1), (2005)]. Thorough washing of needle, tubing and liquid handling system with running buffer was performed after each cycle.\nBIACORE software: The BIACORE control software including all method instructions was applied. A method with commands was also written in the BIACORE Method Definition Language (MDL) to have full control over pre-programmed instructions. BIACORE evaluation software was applied for analysing the sensorgrams.",
  "data": [
    {"substance": "Duramycin", "values": [
      {"measurement": "ka", "value": "~20000", "unit": "M⁻¹ s⁻¹"}
    ]}
  ]
}
